Columns and labels:
Type in all cases: biochemical
papain = target: T1, papain (Carica papaya, UniProt P00784); test: Inhibition of papain, incubation method; details: second-order rate constant, NI = no inhibition; for kinact/KI: pH 7.5, read-out: kobs/[I] papain
T1 sequence (P00784 134-345): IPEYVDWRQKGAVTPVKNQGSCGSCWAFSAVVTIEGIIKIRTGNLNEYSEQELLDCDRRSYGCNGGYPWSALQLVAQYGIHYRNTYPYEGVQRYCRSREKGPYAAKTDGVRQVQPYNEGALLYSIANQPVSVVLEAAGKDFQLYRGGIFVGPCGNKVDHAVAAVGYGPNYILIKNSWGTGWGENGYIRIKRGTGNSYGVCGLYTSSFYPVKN
How it was run: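 Papain (~0.29 mg/mL) incubated with inhibitor in 50 mM Hepes pH 7.5, 2.5 mM DTT, 2.5 mM EDTA; residual activity read on Z-Phe-Arg-pNA (53.7 μM) by p-nitroanilide release at 405 nm. Pseudo-first-order inactivation constants from ln vt/vo versus time.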

cathepsin B = cathepsin B (Homo sapiens, UniProt P07858); test: Inhibition of cathepsin B, incubation method; details: second-order rate constant, NI = no inhibition; for kinact/KI: pH 6, read-out: kobs/[I] cathepsin B
Excerpt: The release of 7-amino-4-methylcoumarin was monitored (λex=360 nm, λem=465 nm) using a Tecan Spectra Fluor microplate reader. Pseudo first-order inactivation rate constants were obtained from plots of In vt/vo versus time.

[1] = target: dipeptidyl peptidase I (DPPI, cathepsin C) (Homo sapiens, UniProt P53634); test: Inhibition of DPPI
Sequence of dipeptidyl peptidase I (DPPI, cathepsin C) (P53634 25-463, species assumed): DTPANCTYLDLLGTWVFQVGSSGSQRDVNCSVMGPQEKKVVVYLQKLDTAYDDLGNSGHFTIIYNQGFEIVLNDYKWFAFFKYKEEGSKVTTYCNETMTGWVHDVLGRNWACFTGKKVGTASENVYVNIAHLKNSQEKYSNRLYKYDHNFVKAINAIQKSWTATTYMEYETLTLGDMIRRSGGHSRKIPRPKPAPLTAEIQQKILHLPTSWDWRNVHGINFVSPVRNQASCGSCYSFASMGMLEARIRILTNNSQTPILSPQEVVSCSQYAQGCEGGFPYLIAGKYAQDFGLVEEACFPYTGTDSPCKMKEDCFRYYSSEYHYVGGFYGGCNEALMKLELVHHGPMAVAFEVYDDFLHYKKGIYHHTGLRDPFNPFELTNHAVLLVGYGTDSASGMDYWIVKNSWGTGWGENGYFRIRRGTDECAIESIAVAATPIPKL

[2] = target: T2, schistosome legumain SmAE (Schistosoma mansoni asparaginyl endopeptidase) (Schistosoma mansoni, UniProt P09841, N192C, form not given); test: Schistosome legumain (SmAE) IC50 assay; details: read-out: Schistosome Legumain IC50; preincubated 20 minutes at room temperature, substrate Cbz-Ala-Ala-Asn-AMC; NI = no inhibition
T2 sequence (P09841 1-429 N192C): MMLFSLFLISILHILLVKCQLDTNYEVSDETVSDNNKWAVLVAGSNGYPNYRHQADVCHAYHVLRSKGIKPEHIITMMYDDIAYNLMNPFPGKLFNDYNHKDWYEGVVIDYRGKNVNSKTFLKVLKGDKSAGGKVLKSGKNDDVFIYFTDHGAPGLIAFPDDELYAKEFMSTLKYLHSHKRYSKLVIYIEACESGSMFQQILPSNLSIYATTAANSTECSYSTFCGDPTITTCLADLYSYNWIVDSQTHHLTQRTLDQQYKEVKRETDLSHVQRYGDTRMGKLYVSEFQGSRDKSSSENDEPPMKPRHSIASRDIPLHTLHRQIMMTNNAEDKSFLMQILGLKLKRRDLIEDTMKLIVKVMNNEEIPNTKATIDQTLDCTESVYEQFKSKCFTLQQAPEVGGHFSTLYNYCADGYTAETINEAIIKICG
Experimental: Studies with the aza-peptide epoxides using the schistosome legumain SmAE (Schistosoma mansoni asparaginyl endopeptidase) were also performed. The enzymatically pure enzyme (zymogen form) was expressed in Pichia without interference from other proteases (ref FEBS lett 2000 466 244–248 Caffrey). The actual active site enzyme concentration is unknown. The lyophilized enzyme (50–100 mg) was reconstituted in 1.5 mL 0.5 M sodium acetate, pH 4.5 containing 4 mM DTT, and left to stand at 37° C. for 3–4 hours to allow for auto-activation of the zymogen. In a black 96-well microtiter plate, 50 uL of activated enzyme was added to an equal volume of 0.1 M citrate-phosphate buffer pH 6.8 containing 4 mM DTT. Inhibitor stock solutions (20 mM) were prepared in DMSO. Serial dilutions (using water) of inhibitor were added (as 1 uL aliquots) to yield concentrations of between 2 and 0.00002 uM inhibitor. The inhibitors were preincubated with the protease at room temperature for 20 minutes before the assay (IC50s were the same when incubated for only 5 minutes). After incubating various inhibitor concentrations with enzyme, 100 uL of the same buffer containing 20 uM substrate (Cbz-Ala-Ala-Asn-AMC) was added to the wells and the reaction monitored at room temperature with linear kinetics up to 20 minutes. Inhibitors are tested in duplicate. A plot of the RFU/min versus the inhibitor concentration [μM] permitted calculation of an IC50 value and estimation of the kobs/[I].

[3] = target: secreted aspartic proteinase 2 (SAP-2) (Candida albicans, UniProt P0DJ06); test: Aspartyl protease assay, SAP-2; details: preincubated 20 minutes, pH 4.5
Sequence of secreted aspartic proteinase 2 (SAP-2) (P0DJ06 57-398): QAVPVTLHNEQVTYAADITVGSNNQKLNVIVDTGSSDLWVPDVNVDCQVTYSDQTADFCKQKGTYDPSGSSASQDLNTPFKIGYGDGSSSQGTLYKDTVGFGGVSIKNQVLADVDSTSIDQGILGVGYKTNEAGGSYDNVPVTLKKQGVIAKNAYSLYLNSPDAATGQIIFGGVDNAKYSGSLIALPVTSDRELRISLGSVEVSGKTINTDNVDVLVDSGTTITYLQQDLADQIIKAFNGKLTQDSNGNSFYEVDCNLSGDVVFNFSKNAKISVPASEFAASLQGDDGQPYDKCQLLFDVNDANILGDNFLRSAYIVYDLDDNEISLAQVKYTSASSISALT
Experimental: (§1) Aspartyl Proteases. Assays with the following aspartyl proteases were performed: porcine pepsin, human cathepsin D, plasmepsin 2 (from P. falciparum), and the secreted aspartic proteinase 2 (SAP-2) from Candida albicans. The inhibitors were also assayed with HIV-1 protease. The inhibitors were preincubated for 30 minutes with HIV-1 protease and 20 minutes with the other enzymes. Substrate was then added and the substrate hydrolysis was monitored.

plasmepsin 2 = plasmepsin 2 (Plasmodium falciparum, UniProt P46925); test: Aspartyl protease assay, plasmepsin 2; details: preincubated 20 minutes, pH 4.5
Sequence of plasmepsin 2 (P46925 125-453): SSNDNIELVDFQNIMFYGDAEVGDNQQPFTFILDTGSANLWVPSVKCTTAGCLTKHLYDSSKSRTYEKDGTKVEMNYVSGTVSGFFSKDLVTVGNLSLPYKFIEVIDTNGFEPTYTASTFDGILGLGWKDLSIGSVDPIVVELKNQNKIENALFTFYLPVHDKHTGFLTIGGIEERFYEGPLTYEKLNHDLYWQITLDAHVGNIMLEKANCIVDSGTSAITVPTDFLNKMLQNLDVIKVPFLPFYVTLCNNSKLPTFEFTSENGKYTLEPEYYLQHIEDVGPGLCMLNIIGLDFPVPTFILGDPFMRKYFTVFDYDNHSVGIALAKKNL
Experimental: as §1

human cathepsin D = human cathepsin D (Homo sapiens, UniProt P07339); test: Aspartyl protease assay, cathepsin D; details: preincubated 20 minutes, pH 3.5
Sequence of human cathepsin D (P07339 65-412): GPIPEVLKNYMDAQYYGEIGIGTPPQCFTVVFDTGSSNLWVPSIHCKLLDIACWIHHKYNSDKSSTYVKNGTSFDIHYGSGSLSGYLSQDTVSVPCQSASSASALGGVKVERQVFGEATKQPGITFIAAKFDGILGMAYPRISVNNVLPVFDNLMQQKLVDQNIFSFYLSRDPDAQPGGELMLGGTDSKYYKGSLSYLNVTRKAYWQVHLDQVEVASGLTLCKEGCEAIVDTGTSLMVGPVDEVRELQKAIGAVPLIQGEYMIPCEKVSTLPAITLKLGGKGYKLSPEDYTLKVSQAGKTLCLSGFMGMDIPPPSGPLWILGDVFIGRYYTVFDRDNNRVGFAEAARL
Experimental: as §1

HIV-1 protease = HIV-1 protease (Human immunodeficiency virus type 1 group M subtype B, UniProt P04585); test: Aspartyl protease assay, HIV-1 protease; details: preincubated 30 minutes
Experimental: as §1

granzyme B = granzyme B (Homo sapiens, UniProt P10144); test: Granzyme B assay; details: preliminary assays, inhibitor 5 mM stock incubated 1 hour, substrate IETD-pNA
Sequence of granzyme B (P10144 21-247, species assumed): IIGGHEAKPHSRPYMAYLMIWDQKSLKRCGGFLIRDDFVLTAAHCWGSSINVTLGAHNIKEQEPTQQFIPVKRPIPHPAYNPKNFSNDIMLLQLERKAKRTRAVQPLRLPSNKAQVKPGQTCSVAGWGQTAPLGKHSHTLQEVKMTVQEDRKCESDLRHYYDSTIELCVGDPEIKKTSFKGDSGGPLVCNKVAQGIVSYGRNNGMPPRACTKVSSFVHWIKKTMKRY
Experimental: Granzyme B. Assays with granzyme B were also performed. In the preliminary assays, the inhibitor (10 μL, 5 mM stock solution in DMSO) was incubated with granzyme B (90 μL) for 1 hour. After the incubation period, to these wells was added IETD-pNA (100 μL) and the rate was monitored at 405 nm.

porcine pepsin = porcine pepsin (Sus scrofa, UniProt P00791); test: Aspartyl protease assay, pepsin; details: preincubated 20 minutes, pH 3.5
Sequence of porcine pepsin (P00791 60-385): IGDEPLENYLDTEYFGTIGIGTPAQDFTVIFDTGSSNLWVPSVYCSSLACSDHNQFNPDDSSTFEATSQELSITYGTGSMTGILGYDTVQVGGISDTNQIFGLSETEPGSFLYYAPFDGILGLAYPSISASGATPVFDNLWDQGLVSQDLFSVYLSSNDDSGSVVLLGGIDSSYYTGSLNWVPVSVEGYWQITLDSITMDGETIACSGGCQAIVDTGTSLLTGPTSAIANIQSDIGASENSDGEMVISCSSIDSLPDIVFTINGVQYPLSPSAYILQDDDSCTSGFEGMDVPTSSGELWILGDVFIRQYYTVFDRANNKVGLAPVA
Experimental: as §1

Q: Which results are given for `CCCC[C@H](NC(=O)OC(C)(C)C)C(=O)NN(CCc1ccccc1)C(=O)[C@@H]1O[C@H]1C(=O)OCC` (relative stereo) [Boc-Nle-AHph-trans-EP-COOEt, trans-3-(N^2-(N-tert-Butoxycarbonylnorleucyl)-N^1-phenylethylhydrazinocarbonyl)oxirane-2-carboxylic Acid Ethyl Ester]?
A: kinact/KI (papain): 1.6 M⁻¹ s⁻¹; kinact/KI (cathepsin B): 1.3 M⁻¹ s⁻¹; kinact/KI ([1]; read-out: kobs/[I] DPPI): 0.7 M⁻¹ s⁻¹

Q: Which IC50 [2] does the source give for `CC(NC(=O)OCc1ccccc1)C(=O)NC(C)C(=O)NN(CC(N)=O)C(=O)C1OC1C(=O)NCCc1ccccc1` [12e, (2S,3S)-2-(2-Phenethylcarbamoyl)-3-(N^2-(N -benzyloxycarbonylalanylalanyl)-N^1-carbamoylmethylhydrazinocarbonyl)oxirane] here?
A: > 2 µM

Q: With `CCCC(N)C(=O)NN(CCc1ccccc1)C(=O)C1OC1C(=O)OCC.O=C(O)C(F)(F)F` (stereo not drawn) [Nva-AHph-trans-EP-COOEt.TFA] as the compound, how does the “kobs/[I] DPPI” value [1] read?
A: 3.2 M⁻¹ s⁻¹

Q: For `CC(NC(=O)[C@@H]1O[C@H]1C(=O)N(CC(N)=O)NC(=O)[C@H](C)NC(=O)[C@H](C)NC(=O)OCc1ccccc1)C(=O)NCc1ccccc1` (stereo partly drawn) [12f, (2R,3R)-2-(1-Benzylcarbamoylethylcarbamoyl)-3-(N^2-(N-benzyloxycarbonylalanylalanyl)-N^1-carbamoylmethylhydrazinocarbonyl)oxirane], which IC50 [2] is on record?
A: > 2 µM

Q: Which results are given for “trans-3-(N-(N-tert-Butoxycarbonylnorvalyl)-N^1-phenylethylhydrazinocarbonyl)oxirane-2-carboxylic Acid Ethyl Ester [Boc-Nva-AHph-trans-EP-COOEt]”?
A: kobs/[I] papain (papain): 1.4 M⁻¹ s⁻¹; kobs/[I] cathepsin B (cathepsin B): 2.7 M⁻¹ s⁻¹; kobs/[I] DPPI [1]: 0.5 M⁻¹ s⁻¹

Q: For `CCOC(=O)[C@H]1O[C@@H]1C(=O)N(CC(N)=O)NC(=O)[C@H](C)NC(=O)[C@H](C)NC(=O)OCc1ccccc1` [Cbz-Ala-Ala-AAsn-(2S, 3S)-EP-COOEt, (2S,3S)-3-(N^2-(N-Benzyloxycarbonylalanylalanyl)-N^1-carbamoylmethylhydrazinocarbonyl)oxirane-2-carboxylic Acid Ethyl Ester], which “inhibition of SAP-2” value [3] is on record?
A: less than 20%

Q: And the kinact/KI (papain)?
A: 4 M⁻¹ s⁻¹

Q: What about the “inhibition of plasmepsin 2” value (plasmepsin 2) of the same compound?
A: less than 20%

Q: And the kinact/KI (cathepsin B)?
A: 6 M⁻¹ s⁻¹

Q: What about the “inhibition of human cathepsin D” value (human cathepsin D) of the same compound?
A: less than 20%

Q: And the “inhibition of HIV-1 protease” value (HIV-1 protease)?
A: less than 20%

Q: And the “inhibition of granzyme B” value (granzyme B)?
A: no inhibition

Q: What about the “inhibition of porcine pepsin” value (porcine pepsin) of the same compound?
A: less than 20%

Q: `CCCCC(N)C(=O)NN(CCc1ccccc1)C(=O)C1OC1C(=O)OCC.O=C(O)C(F)(F)F` (stereo not drawn) [Nle-AHph-trans-EP-COOEt.TFA, trans-3-(N^2-Norleucyl)-N^1-phenylethylhydrazinocarbonyl)oxirane-2-carboxylic Acid Ethyl Ester Trifluoroacetate Salt] was tested. Which “kobs/[I] DPPI” value [1] did it give?
A: 8.2 M⁻¹ s⁻¹

Q: How did the IC50 [2] turn out when `CC(NC(=O)OCc1ccccc1)C(=O)NC(C)C(=O)NN(CC(N)=O)C(=O)C1OC1C(=O)NCc1ccccc1` [12d, (2S,3S)-2-(2-Benzylcarbamoyl)-3-(N^2-(N-benzyloxycarbonylalanylalanyl)-N^1-carbamoylmethylhydrazinocarbonyl)oxirane] was run?
A: > 2 µM

Q: How did the “kobs/[I] DPPI” value [1] turn out when “trans-3-(N^2-Norvalyl)-N^1-phenylethylhydrazinocarbonyl)-1-(2-phenylethyl)oxirane Trifluoroacetate Salt [Nva-AHph-trans-EP-CH2CH2Ph.TFA]” was run?
A: 0.1 M⁻¹ s⁻¹

Reference: US7056947B2, “Aza-peptide epoxides” (Georgia Tech Research Corp., priority 2002, dated 2006)
